Structures can show the parent of a compound that is named as a salt. Where two headings read alike, the source gives them in different places.
Test system: CGS 21680-induced catalepsy
Assay: Activity on CGS 21680-induced catalepsy
Type: in vivo, mice
Settings: for inhibition in vivo at 10 mg/kg: Mus musculus, po, read-out: Remission ratio (%); for Total score: total catalepsy score of 10 mice (maximum 50 points; 40 points or less = positive), one hour after administration
Protocol: Parkinson's disease is a motor disorder based on degeneration and cell death of the nigrostriatal dopaminergic neurons. When CGS 21680 (adenosine A2A receptor agonist) is administered into the intracerebral ventricle, the inhibitory synaptic transmission of GABA in the medium sized spiny neurons in the corpus striatum is inhibited directly via the adenosine A2A receptor [Journal of Neuroscience, vol. 16, p. 605 (1996)]. Accordingly, it is concidered that the adenosine A2A receptor agonists positively regulate the output of the GABAergic neurons from the corpus striatum to the globus pallidus lateralis, and, as a result, catalepsy is induced by the administration of CGS 21680.
The test was carried out using ten 5-week age male ddY mice (22-25 g in body weight, Japan SLC) per group. CGS 21680 (produced by RBI Co) was dissolved in physiological saline (produced by Otsuka Pharmaceutical Co., Ltd.), and 10 μg/20 μL of the solution was injected into mouse intracerebral ventricle. Each test compound was used by suspending it in distilled water containing 0.3% of polyoxylene (20) sorbitan monooleate (referred to as “Tween 80” hereinafter) (produced by Otsuka Pharmaceutical Co., Ltd.). The suspension containing each test compound or a solution containing no test Compound (distilled water containing 0.3% of Tween 80; used as a control) was orally administered (0.1 mL per 10 g of mouse body weight) 30 minutes before the injection of CGS 21680 into the intracerebral ventricle. One hour after the administration of the each test compound, only forelimbs or only hindlimbs of each mouse were laid on a vertically arranged stand made of acryl and having a size of 4.5 cm in height and 1.0 cm in width to measure catalepsy symptoms. All of the test compounds were administered orally in a dose of 10 mg/kg.
The criteria of the catalepsy score are shown below.
The effect was decided by a total catalepsy score of 10 mice in one group (the maximum score: 50 points). When the total score was 40 points or less, the activity of the compounds was decided positive. The number of the animals showing remission of catalepsy was expressed by the number of cases showing a catalepsy score of 4 points or less in 10 cases. The catalepsy remission ratio was expressed as the percentage of the total score in the test compound-administered group to the total score in the control group.

[1] = from total score of test group and control group, 10 mg/kg orally

Structure (SMILES) | inhibition in vivo at 10 mg/kg [1] [%] | Total score (10 mg/kg orally) | inhibition in vivo at 10 mg/kg [%] | Number of animals showing remission (cases with catalepsy score of 4 points or less in 10 cases, 10 mg/kg orally) | Remission ratio (%) [1] [%]
CCN(Cc1cccnc1Cl)C(=O)c1cc2nc(-c3ccco3)nn2c(N)n1 [Compound 129, 5-Amino-2-(2-furyl)[1,2,4]triazolo[1,5-c]pyrimidine-7-carboxylic acid [N-ethyl-N-(2-chloropyridin-3-ylmethyl)]-amide] | 90 | 5 | – | – | –
COc1ccc(CNC(=O)c2cc3nc(-c4ccco4)nn3c(N)n2)cc1OC [Compound 80, 5-Amino-2-(2-furyl)[1,2,4]triazolo[1,5-c]pyrimidine-7-carboxylic acid (3,4-dimethoxybenzyl)amide] | 88 | 6 | – | – | –
CC(C)(O)c1ccc(-c2cc3nc(-c4ccco4)nn3c(N)n2)cc1 [Compound 63, 5-Amino-2-(2-furyl)-7-[4-(1-hydroxy-1-methylethyl)phenyl]-[1,2,4]triazolo[1,5-c]pyrimidine] | 98 | 1 | – | – | –
CN(Cc1ccc(F)cc1)C(=O)c1cc2nc(-c3ccco3)nn2c(N)n1 [Compound 121, 5-Amino-2-(2-furyl)[1,2,4]triazolo[1,5-c]pyrimidine-7-carboxylic acid [N-(4-fluorobenzyl)-N-methyl]amide monohydrochloride] | 72 | 14 | – | – | –
Nc1nc(C(=O)NCCc2ccccn2)cc2nc(-c3ccco3)nn12 [Compound 84, 5-Amino-2-(2-furyl) [1,2,4]triazolo[1,5-c]pyrimidine-7-carboxylic acid [2-(2-pyridyl)ethyl]amide] | 92 | 4 | – | – | –
Nc1nc(CO)cc2nc(-c3ccco3)nn12 [Compound 22, 5-Amino-2-(2-furyl)-7-hydroxymethyl[1,2,4]triazolo[1,5-c]-pyrimidine] | 84 | 8 | – | – | –
Nc1nc(C2=CCN(CCO)CC2)cc2nc(-c3ccco3)nn12 [Compound 75, 5-Amino-2-(2-furyl)-7-[1-(2-hydroxyethyl)-1,2,3,6-tetra-hydropyridin-4-yl][1,2,4]triazolo[1,5-c]pyrimidine] | – | 2 | 96 | – | –
Nc1nc(-c2ccccn2)cc2nc(-c3ccco3)nn12 [Compound 52, 5-Amino-2-(2-furyl)-7-(2-pyridyl)[1,2,4]triazolo[1,5-c]-pyrimidine] | 84 | 8 | – | – | –
CN(C(=O)c1cc2nc(-c3ccco3)nn2c(N)n1)c1ccc(Cl)nc1 [Compound 118, 5-Amino-2-(2-furyl)[1,2,4]triazolo[1,5-c]pyrimidine-7-carboxylic acid [N-(6-chloropyridin-3-yl)-N-methyl]amide] | 94 | 3 | – | – | –
COc1ccc(CN(C)C(=O)c2cc3nc(-c4ccco4)nn3c(N)n2)cc1OC [Compound 81, 5-Amino-2-(2-furyl)[1,2,4]triazolo[1,5-c]pyrimidine-7-carboxylic acid [N-(3,4-dimethoxybenzyl)-N-methyl]amide] | 96 | 2 | – | – | –
Nc1nc(C(=O)N2CCC(Cc3ccccc3)CC2)cc2nc(-c3ccco3)nn12 [Compound 158, 5-Amino-2-(2-furyl)[1,2,4]triazolo[1,5-c]pyrimidin-7-yl 4-benzylpiperidino ketone] | – | 7 | 86 | – | –
Cc1ccc(CN(C)C(=O)c2cc3nc(-c4ccco4)nn3c(N)n2)cn1 [Compound 130, 5-Amino-2-(2-furyl)[1,2,4]triazolo[1,5-c]pyrimidine-7-carboxylic acid [N-methyl-N-(6-methylpyridin-3-ylmethyl)]-amide] | 70 | 15 | – | – | –
Nc1nc(-c2ccc(CO)cn2)cc2nc(-c3ccco3)nn12 [Compound 62, 5-Amino-2-(2-furyl)-7-(3-hydroxymethylpyridin-6-yl)[1,2,4]-triazolo[1,5-c]pyrimidine] | 80 | 10 | – | – | –
Nc1nc(C(=O)N2CCC(O)(Cc3ccccc3)CC2)cc2nc(-c3ccco3)nn12 [Compound 162, 5-Amino-2-(2-furyl)[1,2,4]triazolo[1,5-c]pyrimidin-7-yl 4-benzyl-4-hydroxypiperidino ketone] | 72 | 13 | – | – | –
COC1CCN(C(=O)c2cc3nc(-c4ccco4)nn3c(N)n2)CC1 [Compound 144, 5-Amino-2-(2-furyl)[1,2,4]triazolo[1,5-c]pyrimidin-7-yl 4-methoxypiperidino ketone] | 84 | 7 | – | – | –
Nc1nc(C(=O)N2CCC(O)(c3ccccc3)CC2)cc2nc(-c3ccco3)nn12 [Compound 150, 5-Amino-2-(2-furyl)[1,2,4]triazolo[1,5-c]pyrimidin-7-yl (4-hydroxy-4-phenyl)piperidino ketone] | – | 11 | – | 8 | 76
COCCN(C)C(=O)c1cc2nc(-c3ccco3)nn2c(N)n1 [Compound 87, 5-Amino-2-(2-furyl)[1,2,4]triazolo[1,5-c]pyrimidine-7-carboxylic acid [N-(2-methoxyethyl)-N-methyl]amide] | 82 | 9 | – | – | –
Nc1nc(C2=CCN(Cc3csnn3)CC2)cc2nc(-c3ccco3)nn12 [Compound 72, 5-Amino-2-(2-furyl)-7-[1-(1,2,3-thiadiazol-4-yl)methyl-1,2,3,6-tetrahydropyridin-4-yl][1,2,4]triazolo[1,5-c]-pyrimidine] | – | 0 | 100 | – | –
CCN(Cc1ccncc1)C(=O)c1cc2nc(-c3ccco3)nn2c(N)n1 [Compound 102, 5-Amino-2-(2-furyl)[1,2,4]triazolo[1,5-c]pyrimidine-7-carboxylic acid [N-ethyl-N-(4-pyridylmethyl)]amide] | 92 | 4 | – | – | –
Nc1nc(C(=O)NCCCN2CCCC2=O)cc2nc(-c3ccco3)nn12 [Compound 92] | 82 | 9 | – | – | –
CN(CCc1cccnc1)C(=O)c1cc2nc(-c3ccco3)nn2c(N)n1 [Compound 138, 5-Amino-2-(2-furyl)[1,2,4]triazolo[1,5-c]pyrimidine-7-carboxylic acid {N-methyl-N-[2-(3-pyridyl)ethyl]}amide] | 78 | 11 | – | – | –
Nc1nc(-c2cccnc2)cc2nc(-c3ccco3)nn12 [Compound 53, 5-Amino-2-(2-furyl)-7-(3-pyridyl) [1,2,4]triazolo[1,5-c]-pyrimidine] | 84 | 8 | – | – | –
Nc1nc(-c2cc[nH]n2)cc2nc(-c3ccco3)nn12 [Compound 60, 5-Amino-2-(2-furyl)-7-(1H-pyrazol-3-yl)[1,2,4]triazolo[1,5-c]pyrimidine] | 98 | 1 | – | – | –
Nc1nc(C(=O)NCc2ccccc2)cc2nc(-c3ccco3)nn12 [Compound 91, 5-Amino-2-(2-furyl)[1,2,4]triazolo[1,5-c]pyrimidine-7-carboxylic acid benzylamide] | 94 | 3 | – | – | –
COCCNC(=O)c1cc2nc(-c3ccco3)nn2c(N)n1 [Compound 86, 5-Amino-2-(2-furyl)[1,2,4]triazolo[1,5-c]pyrimidine-7-carboxylic acid (2-methoxyethyl)amide] | 100 | 0 | – | – | –
